From patent US20190381086A1, “INHIBITION OF NEDDYLATION USING GLYCYL-tRNA SYNTHETASE INHIBITORS” (The Scripps Research Institute, priority 2015, published 2019)

Experiments:
[1] = tested on: SN12C; assay: NCI 60 Cell One-Dose Screen; assay type: cell-based, human; conditions: Renal Cancer, single dose 10^-5 M
[2] = tested on: NCI/ADR-RES; assay: NCI 60 Cell One-Dose Screen; assay type: cell-based, human; conditions: Ovarian Cancer, single dose 10^-5 M
[3] = tested on: NCI-H460; assay: NCI 60 Cell One-Dose Screen; assay type: cell-based, human; conditions: NCI-H460, Non-Small Cell Lung Cancer; single dose 10^-5 M
[4] = tested on: SK-OV-3; assay: NCI 60 Cell One-Dose Screen; assay type: cell-based, human; conditions: SK-OV-3, Ovarian Cancer; single dose 10^-5 M
[5] = tested on: K-562; assay: NCI 60 Cell One-Dose Screen; assay type: cell-based, human; conditions: K-562, Leukemia; single dose 10^-5 M
[6] = tested on: T-47D; assay: NCI 60 Cell One-Dose Screen; assay type: cell-based, human; conditions: Breast Cancer, single dose 10^-5 M
[7] = tested on: SK-MEL-28; assay: NCI 60 Cell One-Dose Screen; assay type: cell-based, human; conditions: SK-MEL-28, Melanoma; single dose 10^-5 M
[8] = tested on: PC-3; assay: NCI 60 Cell One-Dose Screen; assay type: cell-based, human; conditions: PC-3, Prostate Cancer; single dose 10^-5 M
[9] = tested on: A549/ATCC; assay: NCI 60 Cell One-Dose Screen; assay type: cell-based, human; conditions: Non-Small Cell Lung Cancer, single dose 10^-5 M
[10] = tested on: OVCAR-3; assay: NCI 60 Cell One-Dose Screen; assay type: cell-based, human; conditions: OVCAR-3, Ovarian Cancer; single dose 10^-5 M
[11] = tested on: IGROV1; assay: NCI 60 Cell One-Dose Screen; assay type: cell-based, human; conditions: IGROV1, Ovarian Cancer; single dose 10^-5 M
[12] = tested on: UACC-257; assay: NCI 60 Cell One-Dose Screen; assay type: cell-based, human; conditions: UACC-257, Melanoma; single dose 10^-5 M
[13] = tested on: SN12C; assay type: cell-based; conditions: Renal Cancer
[14] = tested on: DU-145; assay type: cell-based; conditions: DU-145, Prostate Cancer
[15] = tested on: OVCAR-5; assay type: cell-based; conditions: OVCAR-5, Ovarian Cancer
[16] = tested on: MCF7; assay type: cell-based; conditions: MCF7, Breast Cancer
[17] = tested on: KM12; assay type: cell-based; conditions: KM12, Colon Cancer
[18] = tested on: RPMI-8226; assay type: cell-based; conditions: RPMI-8226, Leukemia
[19] = tested on: COLO 205; assay type: cell-based; conditions: COLO 205, Colon Cancer
[20] = tested on: HCT-15; assay type: cell-based; conditions: HCT-15, Colon Cancer
[21] = tested on: CCRF-CEM; assay type: cell-based; conditions: Leukemia
[22] = tested on: SW-620; assay type: cell-based; conditions: SW-620, Colon Cancer
[23] = tested on: PC-3; assay type: cell-based; conditions: PC-3, Prostate Cancer
[24] = tested on: HOP-92; assay type: cell-based; conditions: HOP-92, Non-Small Cell Lung Cancer
[25] = tested on: TK-10; assay type: cell-based
[26] = tested on: NCI-H522; assay type: cell-based; conditions: NCI-H522, Non-Small Cell Lung Cancer
[27] = tested on: HCC-2998; assay type: cell-based; conditions: HCC-2998, Colon Cancer
[28] = tested on: MALME-3M; assay type: cell-based; conditions: Melanoma
[29] = tested on: RXF 393; assay type: cell-based; conditions: RXF 393, Renal Cancer
[30] = tested on: 786-0; assay type: cell-based; conditions: 786-0, Renal Cancer
[31] = tested on: MDA-MB-435; assay type: cell-based; conditions: MDA-MB-435, Melanoma
[32] = target: S. aureus GlyRS (UniProt Q2FY08); conditions: read-out: IC50 (the inhibitor concentration at which GlyRS activity is reduced by half); cited from earlier work
[33] = Homo sapiens, read-out: LC50 (the source's name)

With `NCC(=O)NS(=O)(=O)OC[C@H]1O[C@@H](n2cnc3c(N)ncnc32)[C@H](O)[C@@H]1O` [GlySA, glycylsulfamoyladenosine] the “Growth inhibition count (%)” value [1] was 1.03%, the “Growth inhibition count (%)” value [2] was 2.073% and the “Growth inhibition count (%)” value [3] was 3.35%. For the same compound, the “Growth inhibition count (%)” value [4] was 6.281%, the “Growth inhibition count (%)” value [5] was 7.376% and the “Growth inhibition count (%)” value [6] was 7.656%. The “Growth inhibition count (%)” value [7] was 8.357%, the “Growth inhibition count (%)” value [8] was 9.662% and the “Growth inhibition count (%)” value [9] was 9.701%. The “Growth inhibition count (%)” value [10] was 10.05%, the “Growth inhibition count (%)” value [11] was 11.7% and the “Growth inhibition count (%)” value [12] was 27.43%. For the same compound, the GI50 ([13]; Homo sapiens) was 0.562 µM, the CC50 [13, 33] was 95.5 µM and the LC50/GI50 [13] was 169.8. For the same compound, the LC50/GI50 [14] was >144.5, the GI50 ([14]; Homo sapiens) was 0.692 µM and the GI50 ([15]; Homo sapiens) was 0.741 µM. The CC50 [15, 33] was > 100 µM, the LC50/GI50 [15] was >134.9 and the GI50 ([16]; Homo sapiens) was 2.82 µM. The CC50 [16, 33] was > 100 µM, the LC50/GI50 [16] was >35.5 and the GI50 ([17]; Homo sapiens) was 3.24 µM. The LC50/GI50 [17] was >30.9, the GI50 ([18]; Homo sapiens) was 3.31 µM and the CC50 [18, 33] was > 100 µM. The LC50/GI50 [18] was >30.2, the LC50/GI50 [19] was 28.2 and the GI50 ([19]; Homo sapiens) was 2.29 µM. For the same compound, the CC50 [19, 33] was 64.6 µM, the LC50/GI50 [20] was 27.5 and the GI50 ([20]; Homo sapiens) was 2.95 µM. For the same compound, the CC50 [20, 33] was 81.3 µM, the GI50 ([21]; Homo sapiens) was 3.71 µM and the LC50/GI50 [21] was >26.9. For the same compound, the GI50 ([22]; Homo sapiens) was 3.71 µM, the CC50 [22, 33] was > 100 µM and the LC50/GI50 [22] was >26.9. The GI50 ([23]; Homo sapiens) was 2.63 µM, the CC50 [23, 33] was 56.2 µM and the LC50/GI50 [23] was 21.4. The LC50/GI50 [24] was 9.3, the GI50 ([24]; Homo sapiens) was 2.95 µM and the CC50 [24, 33] was 27.5 µM. For the same compound, the GI50 ([25]; Homo sapiens, TK-10) was 2.75 µM, the CC50 ([25]; Homo sapiens, TK-10, Renal Cancer, read-out: LC50 (the source's name)) was 23.4 µM and the LC50/GI50 ([25]; TK-10, Renal Cancer) was 8.5. The GI50 ([26]; Homo sapiens) was 1.74 µM, the CC50 [26, 33] was 8.51 µM and the LC50/GI50 [26] was 4.9. It also gave an LC50/GI50 [27] of 4.6, a GI50 ([27]; Homo sapiens) of 2.04 µM and a CC50 [27, 33] of 9.33 µM. The GI50 ([28]; Homo sapiens) was 1.91 µM, the CC50 [28, 33] was 7.76 µM and the LC50/GI50 [28] was 4.1. For the same compound, the GI50 ([29]; Homo sapiens) was 2.14 µM, the CC50 [29, 33] was 8.32 µM and the LC50/GI50 [29] was 3.9. For the same compound, the LC50/GI50 [30] was 3.8, the GI50 ([30]; Homo sapiens) was 1.78 µM and the CC50 [30, 33] was 6.76 µM. The GI50 ([31]; Homo sapiens) was 1.82 µM, the LC50/GI50 [31] was 3.6 and the IC50 [32] was ~2400 µM.
